The assay has as its system PGT cells (Stage 2 cells). Description: Flow cytometry of cell constituent at Stage 4-complete after signaling factors at Stage 3. In kind it is cell-based. From the text:
In the meantime, LDN193189 also promoted chromogranin A (CHGA) expression in Stage 4-complete cells.

The mark [1] stands for this setting: Stage 4-complete, 0.5 μM DMH-1 alone vs no DMH-1, FIG. 6B.

The structures appear in SMILES notation.

Consider `c1ccc2c(-c3cnn4cc(-c5ccc(N6CCNCC6)cc5)cnc34)ccnc2c1` [LDN193189, 4-[6-(4-piperazin-1-ylphenyl)pyrazolo[1,5-a]pyrimidin-β-yl]quinolone], for which the “chromogranin A (CHGA) expression” value (Stage 4-complete cells, LDN193189 at Stage 3, FIG. 6A) was “promoted”. The “percentage of CDX2-positive cells” value (Stage 4-complete, LDN193189 at Stage 3 vs absence, FIG. 6A) is “clearly reduced”.
Regarding `CC(C)Oc1ccc(-c2cnc3c(-c4ccnc5ccccc45)cnn3c2)cc1` [DMH-1], under setting [1], the “percentage of cells expressing CDX2” value is “reduced” and the “percentage of cells expressing CHGA” value is given as “increased”.

Values taken from patent publication US12304900B2, “Islet cell manufacturing compositions and methods of use” (Vertex Pharmaceuticals Incorporated, priority 2017, dated 2025).
